Laboratory results published in ChEMBL document CHEMBL3608237, “Novel inhibitor against Malassezia globosa LIP1 (SMG1), a potential anti-dandruff target” (Bioorg Med Chem Lett, 2015).
Activity calls are given as the source filed them. The calls are words filed in the database; no cut-off is given here.

Assays:
[1] = molecular target: T1, Secreted mono- and diacylglycerol lipase LIP1 (Malassezia globosa (strain ATCC MYA-4612 / CBS 7966)(Dandruff-associated fungus)) (UniProt A8PUY1); assay: Competitive inhibition of Malassezia globosa CBS 7966 LIP1 using pNPA substrate by Lineweaver-Burk plot method
T1 sequence (whole entry): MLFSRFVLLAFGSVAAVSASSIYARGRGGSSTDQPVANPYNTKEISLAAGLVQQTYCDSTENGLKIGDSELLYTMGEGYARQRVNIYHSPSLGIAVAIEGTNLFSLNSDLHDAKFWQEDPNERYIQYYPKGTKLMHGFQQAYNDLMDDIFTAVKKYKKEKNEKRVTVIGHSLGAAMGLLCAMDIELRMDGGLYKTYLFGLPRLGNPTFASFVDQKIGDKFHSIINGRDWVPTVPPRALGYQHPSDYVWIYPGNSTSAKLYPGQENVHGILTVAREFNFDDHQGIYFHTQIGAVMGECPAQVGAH

[2] = molecular target: T2, Secreted mono- and diacylglycerol lipase LIP1 (Malassezia globosa (strain ATCC MYA-4612 / CBS 7966)(Dandruff-associated fungus), UniProt A8PUY1); assay: Inhibition of Malassezia globosa CBS 7966 LIP1 using pNPA substrate
T2 sequence (A8PUY1 whole entry): T1 sequence (whole entry)

[3] = molecular target: T2, Secreted mono- and diacylglycerol lipase LIP1; assay: Inhibition of Malassezia globosa CBS 7966 LIP1 using pNPC substrate
[4] = molecular target: T2, Secreted mono- and diacylglycerol lipase LIP1; assay: Inhibition of Malassezia globosa CBS 7966 LIP1 incubated for 1 hr using monoolein substrate

SMILES | inhibition [1] | IC50 [2] [µM] | IC50 [3] [µM] | IC50 [4] [µM]
O=C(O)c1ccc(=S)n(CC(=O)c2ccccc2)c1 | Active | 98.3 |  | 
O=C1c2ccccc2CN1CCSC(=S)N1CCOCC1 |  |  | > 200 | 
O=C1c2ccccc2CN1CCSC(=S)N1CCCC1 |  |  | 22.9 | 
Cc1ccc(C(=O)Oc2ccc3ccc(O)cc3c2)cc1 | Active | 81.8 |  | 
O=C(NCCCCCCNC(=O)ON=C1CCCCC1)ON=C1CCCCC1 | Active | 75.2 |  | 
O=C1c2ccccc2CN1CCSC(=S)N1CCCCCC1 | Dose-dependent effect | 20.1 | 24.4 | 0.19
O=C1c2ccccc2C(=O)N1CCSC(=S)N1CCOCC1 |  |  | > 200 | 
O=C1c2ccccc2C(=O)N1CCSC(=S)N1CCCC1 |  |  | > 200 | 
O=C1c2ccccc2C(=O)N1CCSC(=S)N1CCCCCC1 |  |  | 63.6 | 
